Source: ChEMBL document CHEMBL4418479, “Diamino heterocyclic carboxamide compound” (2016)
Calls of active or inactive are those of the source. No cut-off for these calls is given here.

Tests used:
EML4-ALK [1] = molecular target: EML4-ALK (Homo sapiens, UniProt Q9UM73); test: Inhibition of recombinant FLAG-tagged EML4-ALK fusion protein (unknown origin) expressed in mouse BA/F3 cells using peptide substrate and ATP incubated for 1 hr by HTRF assay
[2] = molecular target: ALK tyrosine kinase receptor (Homo sapiens) (UniProt Q9UM73); conditions: 5 nM
Sequence of ALK tyrosine kinase receptor (Homo sapiens) (Q9UM73 19-1620 limits assumed): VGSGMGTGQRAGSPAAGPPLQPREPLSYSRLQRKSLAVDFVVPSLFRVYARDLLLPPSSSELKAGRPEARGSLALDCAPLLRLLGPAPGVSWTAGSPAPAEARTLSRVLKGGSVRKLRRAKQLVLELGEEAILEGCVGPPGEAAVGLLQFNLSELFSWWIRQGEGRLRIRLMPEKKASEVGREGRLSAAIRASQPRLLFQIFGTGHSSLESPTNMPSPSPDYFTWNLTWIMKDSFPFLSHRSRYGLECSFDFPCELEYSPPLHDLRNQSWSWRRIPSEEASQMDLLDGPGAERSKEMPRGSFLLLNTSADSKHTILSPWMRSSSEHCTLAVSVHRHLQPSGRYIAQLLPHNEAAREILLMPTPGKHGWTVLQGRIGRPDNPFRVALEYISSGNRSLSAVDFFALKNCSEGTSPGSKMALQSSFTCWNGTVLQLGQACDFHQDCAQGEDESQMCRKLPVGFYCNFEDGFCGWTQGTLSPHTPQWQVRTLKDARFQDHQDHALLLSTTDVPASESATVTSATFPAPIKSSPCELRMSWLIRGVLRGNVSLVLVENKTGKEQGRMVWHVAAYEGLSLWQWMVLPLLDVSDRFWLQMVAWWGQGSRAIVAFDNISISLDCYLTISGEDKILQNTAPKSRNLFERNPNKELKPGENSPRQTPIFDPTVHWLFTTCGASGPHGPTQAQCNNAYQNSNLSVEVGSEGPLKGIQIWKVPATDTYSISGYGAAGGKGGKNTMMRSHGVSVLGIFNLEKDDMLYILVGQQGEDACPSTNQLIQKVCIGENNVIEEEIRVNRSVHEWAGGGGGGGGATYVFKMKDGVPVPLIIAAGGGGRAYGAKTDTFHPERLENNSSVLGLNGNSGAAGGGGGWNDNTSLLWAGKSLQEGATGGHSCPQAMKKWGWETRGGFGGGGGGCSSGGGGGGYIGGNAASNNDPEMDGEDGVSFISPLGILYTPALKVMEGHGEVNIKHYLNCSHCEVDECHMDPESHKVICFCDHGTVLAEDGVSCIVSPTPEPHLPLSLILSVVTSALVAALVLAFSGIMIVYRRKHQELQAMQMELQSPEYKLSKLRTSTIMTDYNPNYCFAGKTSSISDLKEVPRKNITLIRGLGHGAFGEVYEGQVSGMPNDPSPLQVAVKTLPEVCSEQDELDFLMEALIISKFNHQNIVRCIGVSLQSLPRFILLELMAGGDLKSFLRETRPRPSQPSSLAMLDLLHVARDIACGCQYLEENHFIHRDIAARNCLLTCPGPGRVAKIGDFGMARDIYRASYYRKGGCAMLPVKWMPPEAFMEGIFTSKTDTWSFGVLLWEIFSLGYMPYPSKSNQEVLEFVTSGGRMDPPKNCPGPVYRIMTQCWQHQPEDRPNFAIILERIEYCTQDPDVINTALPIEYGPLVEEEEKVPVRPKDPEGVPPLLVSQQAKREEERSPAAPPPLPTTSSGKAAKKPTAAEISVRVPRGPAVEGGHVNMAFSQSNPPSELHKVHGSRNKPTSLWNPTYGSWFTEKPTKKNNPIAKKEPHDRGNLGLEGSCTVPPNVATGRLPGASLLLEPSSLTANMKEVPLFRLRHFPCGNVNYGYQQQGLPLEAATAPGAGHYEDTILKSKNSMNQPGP
Description: Inhibition of N-terminal GST-tagged human ALK cytoplasmic domain (1058 to 1620 amino acids) expressed in baculovirus expression system at 5 nM relative to control

[3] = Antitumor activity against mouse NIH-3T3/EML4-ALK cells implanted in Balb/c mouse assessed as inhibition of tumor growth at 10 mg/kg, po dosed once daily for 5 days and measured every other day relative to untreated control; assay type: functional; conditions: NIH3T3, po, 120 h, read-out: TGI
EML4-ALK [4] = molecular target: EML4-ALK (Homo sapiens, UniProt Q9UM73+Q9HC35); test: Inhibition of recombinant FLAG-tagged EML4-ALK fusion protein (unknown origin) expressed in mouse BA/F3 cells assessed as inhibition of cell growth incubated for 2 days by alamar blue dye based assay
Sequence of EML4-ALK (Homo sapiens, UniProt Q9UM73+Q9HC35) (Q9UM73 whole entry, the tested form may be a part): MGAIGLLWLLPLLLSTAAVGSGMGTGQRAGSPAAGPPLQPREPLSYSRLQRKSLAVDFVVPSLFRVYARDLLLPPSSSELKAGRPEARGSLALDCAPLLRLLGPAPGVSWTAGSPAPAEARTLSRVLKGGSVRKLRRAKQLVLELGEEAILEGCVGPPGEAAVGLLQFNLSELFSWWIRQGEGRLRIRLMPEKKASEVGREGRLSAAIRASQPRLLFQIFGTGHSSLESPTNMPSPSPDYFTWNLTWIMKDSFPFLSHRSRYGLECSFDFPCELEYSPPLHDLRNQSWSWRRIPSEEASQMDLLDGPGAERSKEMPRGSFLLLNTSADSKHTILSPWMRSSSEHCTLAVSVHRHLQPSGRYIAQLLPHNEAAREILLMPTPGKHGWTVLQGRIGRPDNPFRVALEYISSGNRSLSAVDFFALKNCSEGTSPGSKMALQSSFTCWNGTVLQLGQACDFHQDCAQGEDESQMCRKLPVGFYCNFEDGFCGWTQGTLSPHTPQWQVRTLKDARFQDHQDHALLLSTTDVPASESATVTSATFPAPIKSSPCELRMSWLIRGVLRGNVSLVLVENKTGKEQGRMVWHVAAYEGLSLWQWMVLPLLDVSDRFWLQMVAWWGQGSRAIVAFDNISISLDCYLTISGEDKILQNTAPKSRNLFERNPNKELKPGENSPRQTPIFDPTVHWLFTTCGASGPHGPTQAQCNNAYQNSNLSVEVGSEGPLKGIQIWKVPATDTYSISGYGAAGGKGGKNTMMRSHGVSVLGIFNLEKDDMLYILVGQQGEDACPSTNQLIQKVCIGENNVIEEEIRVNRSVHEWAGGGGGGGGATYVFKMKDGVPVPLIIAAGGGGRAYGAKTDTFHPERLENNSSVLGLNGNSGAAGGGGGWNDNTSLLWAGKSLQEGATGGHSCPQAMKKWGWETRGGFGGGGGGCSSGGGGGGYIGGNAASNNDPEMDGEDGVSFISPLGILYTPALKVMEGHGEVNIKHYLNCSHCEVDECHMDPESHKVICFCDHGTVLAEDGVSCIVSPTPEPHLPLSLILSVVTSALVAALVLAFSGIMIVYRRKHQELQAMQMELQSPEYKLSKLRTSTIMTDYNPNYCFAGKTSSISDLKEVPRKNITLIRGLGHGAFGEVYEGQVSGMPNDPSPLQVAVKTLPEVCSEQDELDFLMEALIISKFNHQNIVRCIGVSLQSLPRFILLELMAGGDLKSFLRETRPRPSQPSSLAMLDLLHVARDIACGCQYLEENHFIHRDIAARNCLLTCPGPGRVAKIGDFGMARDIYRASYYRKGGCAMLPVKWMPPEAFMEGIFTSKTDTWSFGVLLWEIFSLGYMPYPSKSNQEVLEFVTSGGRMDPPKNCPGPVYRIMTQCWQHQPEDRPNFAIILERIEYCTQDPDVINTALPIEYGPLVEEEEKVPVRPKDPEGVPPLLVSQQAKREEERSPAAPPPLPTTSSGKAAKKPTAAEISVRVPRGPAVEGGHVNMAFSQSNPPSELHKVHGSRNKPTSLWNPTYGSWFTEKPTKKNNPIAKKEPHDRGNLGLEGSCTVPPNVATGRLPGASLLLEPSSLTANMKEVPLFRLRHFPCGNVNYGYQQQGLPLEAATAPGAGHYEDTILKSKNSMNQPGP
Sequence of EML4-ALK (Homo sapiens, UniProt Q9UM73+Q9HC35) (Q9HC35 whole entry, the tested form may be a part): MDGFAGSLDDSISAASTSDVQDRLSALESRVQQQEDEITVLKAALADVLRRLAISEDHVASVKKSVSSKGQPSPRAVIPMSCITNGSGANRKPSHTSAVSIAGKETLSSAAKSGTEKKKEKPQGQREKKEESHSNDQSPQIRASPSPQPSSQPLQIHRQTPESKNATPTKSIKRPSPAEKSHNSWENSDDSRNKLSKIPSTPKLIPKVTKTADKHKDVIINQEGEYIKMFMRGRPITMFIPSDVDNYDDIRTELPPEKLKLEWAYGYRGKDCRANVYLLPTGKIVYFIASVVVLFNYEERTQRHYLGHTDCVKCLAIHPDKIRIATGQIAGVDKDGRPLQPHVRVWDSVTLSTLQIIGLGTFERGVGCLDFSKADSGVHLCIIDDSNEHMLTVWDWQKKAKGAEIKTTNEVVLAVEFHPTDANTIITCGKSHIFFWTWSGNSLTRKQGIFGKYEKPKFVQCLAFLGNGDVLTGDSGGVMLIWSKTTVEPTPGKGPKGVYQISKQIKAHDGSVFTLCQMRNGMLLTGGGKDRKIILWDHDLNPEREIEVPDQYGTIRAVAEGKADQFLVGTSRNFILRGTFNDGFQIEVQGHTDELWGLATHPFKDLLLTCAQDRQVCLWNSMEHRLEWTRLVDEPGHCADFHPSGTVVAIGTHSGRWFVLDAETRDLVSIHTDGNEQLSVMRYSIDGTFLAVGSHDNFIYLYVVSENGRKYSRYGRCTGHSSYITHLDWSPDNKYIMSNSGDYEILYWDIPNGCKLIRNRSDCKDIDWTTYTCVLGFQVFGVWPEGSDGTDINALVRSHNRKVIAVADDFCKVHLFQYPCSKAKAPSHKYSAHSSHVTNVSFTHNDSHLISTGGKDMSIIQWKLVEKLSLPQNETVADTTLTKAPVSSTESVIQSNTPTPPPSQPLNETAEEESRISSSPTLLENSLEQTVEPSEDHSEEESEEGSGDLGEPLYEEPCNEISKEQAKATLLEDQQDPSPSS

NCI-H2228 = test: Antitumor activity against EML4-ALK fusion protein harboring human NCI-H2228 cells xenografted in NOD/SCID mouse assessed as inhibition of tumor growth at 1 mg/kg, po dosed once daily for 14 days starting 3 weeks of tumor cell inoculation and measured every other day relative to untreated control; assay type: functional

Sequence of EML4-ALK (Homo sapiens, UniProt Q9UM73) (Q9UM73 whole entry, the tested form may be a part): as the sequence (Q9UM73 whole entry, the tested form may be a part) above
Sequence of EML4-ALK (Homo sapiens, UniProt Q9UM73) (Q9HC35 whole entry, further chain, the tested form may be a part): as the sequence (Q9HC35 whole entry, the tested form may be a part) above

inhibition [2] | Compound | other results
> 50% | CCc1nc(C(N)=O)c(Nc2ccc(N3CCC(N4CCN(C)CC4)CC3)c(C)c2)nc1NC1CCOCC1 | 
> 50% | CCc1nc(C(N)=O)c(Nc2ccc(N3CCC(N4CCN(C)CC4)CC3)cc2)nc1N[C@H]1CC[C@H](O)CC1 | 
> 50% | CCc1nc(C(N)=O)c(Nc2ccc(N3CCC(N4CCN(C)CC4)CC3)c(C)c2)nc1N[C@H]1CC[C@](C)(O)CC1 | 
> 50% | CCc1nc(C(N)=O)c(Nc2ccc(N3CCC(N4CCN(C)CC4)CC3)c(C(F)(F)F)c2)nc1N[C@H]1CC[C@H](O)CC1 | inhibition in vivo at 10 mg/kg [3]: 81%
> 50% | Cc1cc(Nc2nc(N[C@H]3CC[C@H](O)CC3)c(Cl)nc2C(N)=O)ccc1N1CCC(N2CCN(C)CC2)CC1 | 
> 50% | CCc1nc(C(N)=O)c(Nc2ccc(N3CCC(N4CCN(C)CC4)CC3)c(C)c2)nc1N[C@H]1CC[C@@](C)(O)CC1 | 
> 50% | CCc1nc(C(N)=O)c(Nc2ccc(N3CCN(C4CCN(C)CC4)CC3)c(C)c2)nc1NC1CCOCC1 | 
> 50% | CCc1nc(C(N)=O)c(Nc2ccc(N3CCC(N4CCN(C)CC4)CC3)c(C)c2)nc1N[C@H]1CC[C@H](O)CC1 | inhibition in vivo at 10 mg/kg [3]: 92%

The remaining lines, values behind:

Compound | inhibition [2] | other results
CCc1nc(C(N)=O)c(Nc2ccc(N3CCC(N4CCN(C)CC4)CC3)c(C)c2)nc1N[C@H]1CC[C@@](O)(CC)CC1 |  | IC50 (EML4-ALK [1]): 2.8 nM
CCc1nc(C(N)=O)c(Nc2ccc(N3CCC(N4CCN(C)CC4)CC3)c(OC)c2)nc1NC1CCOCC1 | > 50% | 
CCc1nc(C(N)=O)c(Nc2ccc(N3CCN(C(C)C)CC3)c(C)c2)nc1N[C@H]1CC[C@H](O)CC1 | > 50% | inhibition in vivo at 10 mg/kg [3]: 81%
CCc1nc(C(N)=O)c(Nc2ccc3cnn(C)c3c2)nc1N[C@H]1CC[C@H](O)CC1 |  | IC50 (EML4-ALK [4]): 76 nM
CCc1nc(C(N)=O)c(Nc2ccc(N3CCC(N4CCN(C)CC4)CC3)c(C)c2)nc1N[C@H]1CC[C@](O)(CC)CC1 |  | IC50 (EML4-ALK [1]): 3.1 nM
CC(C)c1nc(C(N)=O)c(Nc2ccc(N3CCC(N4CCN(C)CC4)CC3)c(C(F)(F)F)c2)nc1N[C@H]1CC[C@H](O)CC1 | > 50% | 
CC(C)c1nc(C(N)=O)c(Nc2ccc(N3CCC(N4CCN(C)CC4)CC3)cc2)nc1NC1CCOCC1 | > 50% | inhibition in vivo at 1 mg/kg (NCI-H2228; read-out: TGI): 69%
CCc1nc(C(N)=O)c(Nc2ccc(N3CCC(N4CCN(C)CC4)CC3)c(C)c2)nc1N[C@H]1CC[C@@](O)(C(C)C)CC1 |  | IC50 (EML4-ALK [1]): 4.1 nM
CCc1nc(C(N)=O)c(Nc2ccc(N3CCC(N4CCN(C)CC4)CC3)cc2)nc1NC1CCOCC1 | > 50% | inhibition in vivo at 10 mg/kg [3]: 79%
NC(=O)c1cnc(N[C@@H]2CCCC[C@@H]2N)nc1Nc1ccc(-c2ccc(N3CCOCC3)cc2)cc1 (racemic) |  | TGI (NCI-H2228): inactive
CCc1nc(C(N)=O)c(Nc2cccc(C)c2)nc1NCCN(C)C |  | TGI (NCI-H2228): inactive
CCc1nc(C(N)=O)c(Nc2ccc(N3CCN(C)CC3)cc2)nc1N[C@H]1CC[C@H](O)CC1 | > 50% | 
CCc1nc(C(N)=O)c(Nc2ccc(N3CCC(N4CCN(C)CC4)CC3)c(C)c2)nc1N[C@H]1CC[C@](O)(C(C)C)CC1 |  | IC50 (EML4-ALK [1]): 2.6 nM
CC(C)c1nc(C(N)=O)c(Nc2ccc(N3CCN(C)CC3)cc2)nc1N[C@H]1CC[C@H](O)CC1 | > 50% | 
CCc1nc(C(N)=O)c(Nc2ccc(N3CCN(C)CC3)c(F)c2)nc1NC1CCOCC1 | > 50% | 
COc1cc(Nc2nc(NC3CCOCC3)c(C(C)C)nc2C(N)=O)ccc1N1CCN(C)CC1 | > 50% | inhibition in vivo at 10 mg/kg [3]: 63%
CC(C)c1nc(C(N)=O)c(Nc2ccc(N3CCN(C)CC3)cc2)nc1NC1CCOCC1 | > 50% | 
